Assay results taken from ChEMBL document CHEMBL4814014, “Identification of novel androgen receptor degrading agents to treat advanced prostate cancer” (Eur J Med Chem, 2021).

How the values were obtained:
CWR22R = assay: Antiproliferative activity against AR-positive human 22RV1 cells assessed as reduction in cell viability incubated for 3 days by MTT assay; conditions: 22Rv1, 72 h
DU-145 = assay: Antiproliferative activity against AR-negative human DU145 cells assessed as reduction in cell viability incubated for 3 days by MTT assay; conditions: DU-145, 72 h
LNCaP = assay: Antiproliferative activity against AR-positive human LNCaP cells assessed as reduction in cell viability incubated for 3 days by MTT assay; conditions: 72 h

**Q.** What does the source list for `C=CC(=O)Nc1ccc(-c2cc(=O)c3c(O)cc(OC)c(OC(C)C)c3o2)cc1`?
**A.** IC50 (CWR22R): 5.8 µM; IC50 (DU-145): 14.7 µM; IC50 (LNCaP): 15.1 µM

**Q.** How did the IC50 (CWR22R) turn out when `CNC(=O)c1ccc(N2C(=S)N(c3ccc(C#N)c(C(F)(F)F)c3)C(=O)C2(C)C)cc1F` [ENZALUTAMIDE] was run?
**A.** Its IC50 is 42.3 µM.

**Q.** And the IC50 (DU-145)?
**A.** Its IC50 is 45.3 µM.

**Q.** And the IC50 (LNCaP)?
**A.** Its IC50 is 17.6 µM.
